In US20190136321A1, “USE OF TRANSLATIONAL PROFILING TO IDENTIFY TARGET MOLECULES FOR THERAPEUTIC TREATMENT” (The Regents of The University of California, priority 2013, published 2019):

System: SW620 cells
Experiment: Ribosome profiling of SW620 cells (transcription, translational rate, translational efficiency)
Format: cell-based, human
Settings: 8 hours
Procedure: SW620 human colon cancer cells were cultured in DMEM media supplemented with penicillin G (100 U/ml), streptomycin (100 μg/ml), and 10% FBS in a humidified atmosphere of 5% CO2 maintained at 37° C.
SW620 cells (ATCC, passage 12) were seeded at about 75% confluence 24 hrs prior to drug treatment. […] About 6×10^6 cells/10 cm plate and about 1×10^6 cells/well of a 6-well plate were harvested for ribosome profiling and Western blot analysis, respectively, following drug treatment.

For `CC(=O)Nc1cccc(-n2c(=O)n(C3CC3)c(=O)c3c(Nc4ccc(I)cc4F)n(C)c(=O)c(C)c32)c1` [GSK212], the “Profile TE” value (gene ARID5A, 250 nM) was −0.4 log2 MEKi/DMSO, the Profile rna (gene ARID5A, 250 nM) was −0.5 log2 MEKi/DMSO and the Profile rpf (gene ARID5A, 250 nM) was −0.9 log2 MEKi/DMSO. The “Profile TE” value (gene B4GALT6, 250 nM) was 0.0 log2 MEKi/DMSO, the Profile rna (gene B4GALT6, 250 nM) was 0.0 log2 MEKi/DMSO and the Profile rpf (gene B4GALT6, 250 nM) was −0.1 log2 MEKi/DMSO. For the same molecule, the “Profile TE” value (gene BXDC2/BRIX1, 250 nM) was 0.2 log2 MEKi/DMSO, the Profile rna (gene BXDC2/BRIX1, 250 nM) was −1.1 log2 MEKi/DMSO and the Profile rpf (gene BXDC2/BRIX1, 250 nM) was −0.8 log2 MEKi/DMSO. The “Profile TE” value (gene BYSL, 250 nM) was 0.2 log2 MEKi/DMSO, the Profile rna (gene BYSL, 250 nM) was −0.8 log2 MEKi/DMSO and the Profile rpf (gene BYSL, 250 nM) was −0.6 log2 MEKi/DMSO. The “Profile TE” value (gene CCND1, 250 nM) was −0.3 log2 MEKi/DMSO, the Profile rna (gene CCND1, 250 nM) was −1.8 log2 MEKi/DMSO and the Profile rpf (gene CCND1, 250 nM) was −2.0 log2 MEKi/DMSO. The “Profile TE” value (gene CD3EAP, 250 nM) was −0.5 log2 MEKi/DMSO, the Profile rna (gene CD3EAP, 250 nM) was −0.6 log2 MEKi/DMSO and the Profile rpf (gene CD3EAP, 250 nM) was −1.1 log2 MEKi/DMSO. The “Profile TE” value (gene CHSY1, 250 nM) was −0.7 log2 MEKi/DMSO, the Profile rna (gene CHSY1, 250 nM) was 0.0 log2 MEKi/DMSO and the Profile rpf (gene CHSY1, 250 nM) was −0.7 log2 MEKi/DMSO. For the same molecule, the “Profile TE” value (gene DDX21, 250 nM) was −0.6 log2 MEKi/DMSO, the Profile rna (gene DDX21, 250 nM) was −0.3 log2 MEKi/DMSO and the Profile rpf (gene DDX21, 250 nM) was −1.0 log2 MEKi/DMSO. The “Profile TE” value (gene DUSP4, 250 nM) was −0.4 log2 MEKi/DMSO, the Profile rna (gene DUSP4, 250 nM) was −2.0 log2 MEKi/DMSO and the Profile rpf (gene DUSP4, 250 nM) was −2.4 log2 MEKi/DMSO. For the same molecule, the “Profile TE” value (gene DUSP6, 250 nM) was −3.1 log2 MEKi/DMSO, the Profile rna (gene DUSP6, 250 nM) was −6.3 log2 MEKi/DMSO and the Profile rpf (gene DUSP6, 250 nM) was −9.3 log2 MEKi/DMSO. The “Profile TE” value (gene EGR1, 250 nM) was −3.1 log2 MEKi/DMSO, the Profile rna (gene EGR1, 250 nM) was −1.0 log2 MEKi/DMSO and the Profile rpf (gene EGR1, 250 nM) was −4.1 log2 MEKi/DMSO. For the same molecule, the “Profile TE” value (gene ELOVL6, 250 nM) was 0.6 log2 MEKi/DMSO, the Profile rna (gene ELOVL6, 250 nM) was −1.4 log2 MEKi/DMSO and the Profile rpf (gene ELOVL6, 250 nM) was −0.8 log2 MEKi/DMSO. For the same molecule, the Profile rna (gene ETV1, 250 nM) was −3.5 log2 MEKi/DMSO, the “Profile TE” value (gene ETV4, 250 nM) was −0.6 log2 MEKi/DMSO and the Profile rna (gene ETV4, 250 nM) was −2.2 log2 MEKi/DMSO. For the same molecule, the Profile rpf (gene ETV4, 250 nM) was −2.8 log2 MEKi/DMSO, the “Profile TE” value (gene ETV5, 250 nM) was −3.0 log2 MEKi/DMSO and the Profile rna (gene ETV5, 250 nM) was −2.6 log2 MEKi/DMSO. For the same molecule, the Profile rpf (gene ETV5, 250 nM) was −5.6 log2 MEKi/DMSO, the “Profile TE” value (gene FLJ10534/TSR1, 250 nM) was −0.6 log2 MEKi/DMSO and the Profile rna (gene FLJ10534/TSR1, 250 nM) was −0.3 log2 MEKi/DMSO. The Profile rpf (gene FLJ10534/TSR1, 250 nM) was −0.8 log2 MEKi/DMSO, the “Profile TE” value (gene FOS, 250 nM) was 0.2 log2 MEKi/DMSO and the Profile rna (gene FOS, 250 nM) was −2.9 log2 MEKi/DMSO. The Profile rpf (gene FOS, 250 nM) was −2.7 log2 MEKi/DMSO, the “Profile TE” value (gene FOSL1, 250 nM) was −0.5 log2 MEKi/DMSO and the Profile rna (gene FOSL1, 250 nM) was −3.6 log2 MEKi/DMSO. For the same molecule, the Profile rpf (gene FOSL1, 250 nM) was −4.1 log2 MEKi/DMSO, the “Profile TE” value (gene GEMIN4, 250 nM) was −0.5 log2 MEKi/DMSO and the Profile rna (gene GEMIN4, 250 nM) was −0.1 log2 MEKi/DMSO. For the same molecule, the Profile rpf (gene GEMIN4, 250 nM) was −0.6 log2 MEKi/DMSO, the “Profile TE” value (gene GNL3, 250 nM) was −0.2 log2 MEKi/DMSO and the Profile rna (gene GNL3, 250 nM) was −0.7 log2 MEKi/DMSO. The Profile rpf (gene GNL3, 250 nM) was −0.8 log2 MEKi/DMSO, the Profile rpf (gene GPR3, 250 nM) was −2.8 log2 MEKi/DMSO and the “Profile TE” value (gene GTPBP4, 250 nM) was −0.3 log2 MEKi/DMSO. For the same molecule, the Profile rna (gene GTPBP4, 250 nM) was −0.4 log2 MEKi/DMSO, the Profile rpf (gene GTPBP4, 250 nM) was −0.7 log2 MEKi/DMSO and the “Profile TE” value (gene HMGA2, 250 nM) was 1.2 log2 MEKi/DMSO. The Profile rna (gene HMGA2, 250 nM) was −2.9 log2 MEKi/DMSO, the Profile rpf (gene HMGA2, 250 nM) was −1.7 log2 MEKi/DMSO and the “Profile TE” value (gene HSPC111/NOP16, 250 nM) was 0.6 log2 MEKi/DMSO. The Profile rna (gene HSPC111/NOP16, 250 nM) was −1.5 log2 MEKi/DMSO, the Profile rpf (gene HSPC111/NOP16, 250 nM) was −0.9 log2 MEKi/DMSO and the “Profile TE” value (gene IER3, 250 nM) was −0.1 log2 MEKi/DMSO. The Profile rna (gene IER3, 250 nM) was −2.2 log2 MEKi/DMSO, the Profile rpf (gene IER3, 250 nM) was −2.3 log2 MEKi/DMSO and the “Profile TE” value (gene IL8, 250 nM) was 2.4 log2 MEKi/DMSO. For the same molecule, the Profile rna (gene IL8, 250 nM) was −5.6 log2 MEKi/DMSO and the Profile rpf (gene IL8, 250 nM) was −3.2 log2 MEKi/DMSO.
